The values below come from ChEMBL document CHEMBL5247647, “Phenothiazine-Based LSD1 Inhibitor Promotes T-Cell Killing Response of Gastric Cancer Cells” (J Med Chem, 2023).

Data set [1] has as its target T1, Lysine-specific histone demethylase 1A (Homo sapiens, UniProt O60341). As to the kind of experiment: Inhibition of human LSD1 in human BGC-823 cells assessed as inhibition of H3K4me2 demethylation at 5 to 20 uM incubated for 5 days by Western blot anlaysis. As to conditions: dose 5-20 µM, time 5.0 day. Type of data set: cell-based. Background: A western blot detects proteins with antibodies after separation by electrophoresis.

The subject of data set [2] is MFC. Nature of the data set: Downregulation of PD-L1 expression in mouse LSD1 knockout MFC cells at 5 to 20 uM incubated for 5 days by Western blot anlaysis. As to conditions: dose 5-20 µM, time 5.0 day. Type of data set: functional, cell-based.
Data set [3] concerns the target T1, Lysine-specific histone demethylase 1A. As to the kind of experiment: Inhibition of human LSD1 in human LSD1 knockout BGC-823 cells assessed as effect on H3K4me1 methylation at 5 to 20 uM incubated for 5 days by Western blot anlaysis. Type of data set: cell-based. To be noted: dose 5-20 µM, time 5.0 day.
Data set [4] relates to BGC-823. Nature of the data set: Anticancer activity against human PD-L1 knockout BGC-823 cells assessed as increase in CD3/CD28 activated T-cell killing response at 5 to 20 uM incubated for 5 days by DAPI staining based assay. Type of data set: functional. To be noted: dose 5-20 µM, time 5.0 day.
Data set [5] addresses T2, Lysine-specific histone demethylase 2 (Homo sapiens) (UniProt Q8NB78).
T2 sequence (whole entry): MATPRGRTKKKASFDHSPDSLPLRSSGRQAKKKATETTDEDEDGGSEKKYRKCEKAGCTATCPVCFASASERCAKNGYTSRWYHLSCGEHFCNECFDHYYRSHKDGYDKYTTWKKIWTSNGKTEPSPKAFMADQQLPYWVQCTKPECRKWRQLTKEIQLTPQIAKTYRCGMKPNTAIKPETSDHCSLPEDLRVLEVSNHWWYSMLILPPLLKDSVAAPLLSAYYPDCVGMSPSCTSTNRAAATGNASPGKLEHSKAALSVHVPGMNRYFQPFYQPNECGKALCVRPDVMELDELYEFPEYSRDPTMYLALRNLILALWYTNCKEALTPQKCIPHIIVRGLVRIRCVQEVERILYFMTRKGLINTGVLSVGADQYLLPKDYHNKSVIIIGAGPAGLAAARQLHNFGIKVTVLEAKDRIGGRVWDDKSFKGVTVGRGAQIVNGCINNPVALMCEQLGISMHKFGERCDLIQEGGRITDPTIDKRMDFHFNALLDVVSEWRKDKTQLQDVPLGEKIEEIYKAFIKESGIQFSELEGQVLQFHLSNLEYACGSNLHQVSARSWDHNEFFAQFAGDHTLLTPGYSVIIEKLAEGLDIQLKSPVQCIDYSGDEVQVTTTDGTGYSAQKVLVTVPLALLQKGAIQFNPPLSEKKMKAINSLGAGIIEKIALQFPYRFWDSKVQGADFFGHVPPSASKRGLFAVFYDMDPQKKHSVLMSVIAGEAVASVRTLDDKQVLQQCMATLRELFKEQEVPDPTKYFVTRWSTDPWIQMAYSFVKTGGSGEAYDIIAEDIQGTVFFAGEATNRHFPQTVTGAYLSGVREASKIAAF
Nature of the data set: Inhibition of recombinant LSD2 (unknown origin) at 10 uM.

Data set [6] concerns BGC-823. Nature of the data set: Anticancer activity against human BGC-823 cells assessed as increase in CD3/CD28 activated T-cell killing response by measuring IFNgamma level at 5 to 20 uM incubated for 5 days by Sandwich ELISA. The class given is functional, cell-based. To be noted: dose 5-20 µM, time 5.0 day. (In general: In an ELISA, binding on a coated surface is turned into a signal by an enzyme label.)

In data set [7] the test system is BGC-823. Nature of the data set: Anticancer activity against human BGC-823 cells assessed as increase in CD3/CD28 activated T-cell killing response at 5 to 20 uM incubated for 5 days by DAPI staining based assay. As to conditions: dose 5-20 µM, time 5.0 day. Type of data set: functional.
The nature of data set [8]: Toxicity against 615 mouse xenografted with mouse MFC cells in assessed as pathological changes in lungs at 10 to 50 mg/kg, po for 14 days by Hematoxylin and Eosin staining based microscopic analysis. The class given is organism-based. To be noted: in vivo, 336 h, dose 10-50 mg/kg, time 14 day.
Data set [9] concerns the target T1, Lysine-specific histone demethylase 1A. As to the kind of experiment: Inhibition of human LSD1 in human LSD1 knockout BGC-823 cells assessed as effect on H3K4me3 methylation at 5 to 20 uM incubated for 5 days by Western blot anlaysis. The class given is cell-based. To be noted: dose 5-20 µM, time 5.0 day.
For data set [10], the system named is MFC. As to the kind of experiment: Antitumor activity against mouse MFC cells xenografted in 615 mouse assessed as decrease in tumor weight at 10 to 50 mg/kg, po for 14 days. The class given is functional, organism-based. As to conditions: dose 10-50 mg/kg, time 14.0 day.
For data set [11], the system named is MFC. As to the kind of experiment: Antitumor activity against mouse MFC cells xenografted in 615 mouse assessed as decrease in intratumoral PD-L1 expression at 10 to 50 mg/kg, po for 14 days by Western blot analysis. The class given is functional, organism-based. As to conditions: dose 10-50 mg/kg, time 14.0 day.
Data set [12] deals with BGC-823. Nature of the data set: Downregulation of PD-L1 expression in human LSD1 knockout BGC-823 cells transfected with wild type LSD1 plasmid at 20 uM incubated for 5 days by Western blot anlaysis. The class given is functional, cell-based. To be noted: time 5.0 day.
Data set [13] has as its target T1, Lysine-specific histone demethylase 1A. Nature of the data set: Inhibition of human LSD1 in human BGC-823 cells assessed as inhibition of H3K4me3 demethylation at 5 to 20 uM incubated for 5 days by Western blot anlaysis. Type of data set: cell-based. As to conditions: dose 5-20 µM, time 5.0 day.
For data set [14], the system named is BGC-823. As to the kind of experiment: Downregulation of PD-L1 expression in human LSD1 knockout BGC-823 cells transfected with […] K661A mutant plasmid at 20 uM incubated for 5 days by Western blot anlaysis. Type of data set: functional, cell-based. To be noted: time 5.0 day.
Data set [15] deals with BGC-823. Nature of the data set: Downregulation of PD-L1 expression in human BGC-823 cells at 5 to 20 uM incubated for 5 days by Western blot anlaysis. Type of data set: functional, cell-based. To be noted: dose 5-20 µM, time 5.0 day.
In a further data set the target is T3, MAO-B (Homo sapiens, UniProt P27338).
T3 sequence (P27338 whole entry): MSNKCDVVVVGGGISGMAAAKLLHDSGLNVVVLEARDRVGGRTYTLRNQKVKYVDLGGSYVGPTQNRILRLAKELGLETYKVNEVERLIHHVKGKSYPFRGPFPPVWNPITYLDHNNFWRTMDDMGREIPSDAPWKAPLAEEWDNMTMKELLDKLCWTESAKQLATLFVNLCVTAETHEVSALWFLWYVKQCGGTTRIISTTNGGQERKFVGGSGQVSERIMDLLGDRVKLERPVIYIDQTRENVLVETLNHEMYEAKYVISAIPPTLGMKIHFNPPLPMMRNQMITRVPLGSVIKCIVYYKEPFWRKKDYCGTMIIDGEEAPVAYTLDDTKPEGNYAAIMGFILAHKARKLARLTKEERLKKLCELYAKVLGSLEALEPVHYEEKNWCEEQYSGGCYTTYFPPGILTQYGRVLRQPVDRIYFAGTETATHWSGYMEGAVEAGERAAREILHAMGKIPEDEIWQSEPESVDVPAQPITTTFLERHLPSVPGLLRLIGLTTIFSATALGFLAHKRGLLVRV
Nature of the data set: Inhibition of recombinant human MAO-B at 10 uM.

SMILES strings stand for the structures. Calls of active or inactive are those of the source. No cut-off for these calls is given here. Some results are limits rather than exact numbers.

As to `c1ccc2c(c1)Sc1ccccc1N2CCN1CCOCC1`, the inhibition (commonly the percentage by which the read-out fell short of the control) in [1] was “Active”. Further, the outcome in the data set with MFC [2], with BGC-823 [4] and with BGC-823 [14] was inactive. Moreover, the inhibition entry in data set [3], in data set [9] and in data set [13] was “inactive” in each case. In data set [5], the inhibition was > 10%. Besides, the outcome in the data set on BGC-823 [6], with MFC [10] and in the data set on BGC-823 [12] was Active. The Activity entry is “Dose-Dependent Effect” in the data set on BGC-823 [7], “Non-Toxic” in data set [8], “Dose-Dependent Effect” in the data set on MFC [11] and “Dose-Dependent Effect” in the data set on BGC-823 [15]. Besides, at MAO-B, the inhibition at 10 µM is < 10%.
